# Test system: human platelet rich plasma (ADP-induced platelet aggregation)
# Assay: Inhibition of human platelet aggregation, 96-well assay
# Type: cell-based
# Conditions: 20 min, aggregation induced by ADP, 96-well plates, AUC of absorbance over 20 minutes
# Experimental: Inhibition of Human Platelet Aggregation
# Alternatively to a binding assay which measures a compound's ability to bind to the P2Y12 receptor, the effect on cellular function was also determined. This ability of the compound was evaluated in two platelet aggregation assays: in 96-well plates and with the “Born”-method using single cuvettes.
# Whole blood was collected from healthy volunteers using 20 ml syringes containing 2 ml of ACD-A Aqua-Citrat-Dextrose-A, Fresenius). The anticoagulated whole blood was transferred into 15 ml polypropylene conical tubes (10 ml per tube). The tubes were centrifuged for 15 minutes at 150×g at RT without using the centrifuge brake. This procedure leads to a pellet of cellular components and a supernatant of platelet rich plasma (PRP). The PRP layer was collected from each tube and pooled for each donor. To avoid carry over of cellular components following centrifugation, approximately 5 ml of PRP was left in the tube. The platelet concentration was determined using a Coulter Counter.
# The 15 ml tubes containing the pellet of cellular components were centrifuged again for 10 minutes at 1940×g. This pelleted out most particulate blood constituents remaining, leaving a layer of Platelet Poor Plasma (PPP). The PPP was collected for each donor. The PRP layer, previously set aside, was diluted with PPP to a final concentration of approximately 3×E8 platelets/ml with the PPP.
# The human platelet aggregation assay is performed in 96-well plates using a microtiter plate reader (SpectraMax Plus 384 with SoftMax Pro software from Molecular Devices). In the plate 15 μl of test compound at 10× final concentration in NaCl is mixed with 120 μl fresh PRP and incubated for 5 minutes. Following that incubation period, 15 μl of 40 μM ADP is added to the reaction mix. This addition of ADP is sufficient to induce aggregation in the absence of an inhibitor. The plates are then transferred to the microplate reader and aggregation is measured over 20 minutes. The instrument settings include: Absorbance at 650 nm, run time 20 minutes with readings in 1-minute intervals and 50 seconds shaking between readings all performed at 37° C. Results of the assay are expressed as % inhibition, and are calculated using area under curve (AUC) of the absorbance over 20 minutes.
# The IC50 data of the above described platelet aggregation 96-well assay using human platelet rich plasma for exemplary compounds of the present invention are shown in table 2.
row,IC50 [nM],Structure (SMILES)
1,2190,"CCOC(=O)N1CCN(C(=O)[C@H](CCC(=O)O)NC(=O)c2cc(OCC(=O)NC3(C(=O)NC4CCC4)CCC3)n(-c3ccccc3)n2)CC1 [Example 167, 4-{(S)-4-Carboxy-2-[(5-{[1-(cyclobutyl-carbamoyl)-cyclobutylcarbamoyl]-methoxy}-1-phenyl-1H-pyrazole-3-carbonyl)-amino]-butyryl}-piperazine-1-carboxylic acid ethyl ester]"
2,1480,"CCOC(=O)N1CCN(C(=O)[C@H](CCC(=O)O)NC(=O)c2cc(OCC(=O)N[C@@H](C)C(=O)O)n(-c3ccccc3)n2)CC1 [Example 138, 4-[(S)-4-Carboxy-2-({5-[((S)-1-carboxy-ethylcarbamoyl)-methoxy]-1-phenyl-1H-pyrazole-3-carbonyl}-amino)-butyryl]-piperazine-1-carboxylic acid ethyl ester]"
3,2600,"CCOC(=O)N1CCN(C(=O)[C@H](CCC(=O)O)NC(=O)c2cc(OCC(=O)C3CC3)n(-c3ccccc3)n2)CC1 [Example 96, 4-((S)-4-Carboxy-2-{[5-(2-cyclopropyl-2-oxo-ethoxy)-1-phenyl-1H-pyrazole-3-carbonyl]-amino}-butyryl)-piperazine-1-carboxylic acid ethyl ester]"
4,1850,"CCOC(=O)N1CCN(C(=O)[C@H](CCC(=O)O)NC(=O)c2cc(OCC(=O)N[C@H](C)C(=O)O)n(-c3ccccc3)n2)CC1 [Example 139, 4-[(S)-4-Carboxy-2-({5-[((R)-1-carboxy-ethylcarbamoyl)-methoxy]-1-phenyl-1H-pyrazole-3-carbonyl}-amino)-butyryl]-piperazine-1-carboxylic acid ethyl ester]"

# Biological target: T1, human P2Y12 receptor (Homo sapiens, UniProt Q9H244)
# T1 construct: expressed in transfected cells; host or cells: CHO cells (membrane preparation)
# Assay: Human P2Y12 recombinant cell membrane binding assay
# Conditions: competition against 33P 2MeS-ADP; CHO cell membranes with recombinant human P2Y12 receptor
# Experimental: The ability of the compounds of the formula I to inhibit the P2Y12 receptor can be assessed by determining the concentration of the compound of the formula I that binds to the human P2Y12 Recombinant Cell Membrane Binding Assay with 33P 2MeS-ADP.
# Human P2Y12 Recombinant Cell Membrane Binding Assay
# The ability of a test compound to bind to the P2Y12 receptor was evaluated in a recombinant cell membrane binding assay. In this competitive binding assay, the test compound competed against a radiolabeled agonist for binding to the P2Y12 receptor, expressed on the cell membrane. Inhibition of binding of the labeled material was measured and correlated to the amount and potency of the test compound. This binding assay is a modification of the procedure described by Takasaki, J. et. al, Mol. Pharmacol., 2001, Vol. 60, pg. 432.
# As source of P2Y12, a membrane preparation was prepared from Chinese Hamster Ovary (CHO) cells with recombinant expression of the human P2Y12 receptor according to standard procedures.
# To a 96-well microtiterplate the following were added: a) 24 μl of assay buffer (10 mM HEPES, 138 mM NaCl, […] KCl, 12 mM NaHCO3, 1 mM EDTA-Na, 0.1% BSA, pH 7.4) b) 1 μL compound in DMSO c) 50 μL P2Y12 CHO membrane (20 μg/ml) and after 15 min at RT d) 25 μL of 1.61 nM 33P 2MeS-ADP (Perkin Elmer NEN custom synthesis, specific activity ˜2100Ci/mmol) made in assay buffer.
# After 20 min incubation at RT samples were transferred to 96-well microtiter filterplates (Millipore HTS GF/B), pre-wetted for 20 min with 300 μL of stop buffer (10 mM HEPES, 138 mM NaCl pH 7.4) and then filtered through completely with a Millipore plate vacuum. Next, wells were washed four times with 400 μl/well of stop buffer on a plate vacuum. The plate was disassembled and allowed to air dry overnight with the filter side up over night. The filter plates were snapped into adapter plates and 0.1 mL of Microscint 20 Scintillation Fluid (Perkin Elmer #6013621) was added to each well. The top of the filterplate was sealed with plastic plate covers. The sealed filterplate were incubated 2 hours at RT. A Microbeta Scintillation Counter was used to measure counts. The binding of compound is expressed as a % inhibition of specific binding, defined by subtraction of the background with 1 mM ADP.
# Compounds were diluted as 10 mM DMSO stocks and tested in a four-point, five-fold dilution series run in triplicate beginning at 10 μM, final concentration. Data were analyzed using a four-parameter curve fit with a fixed minimum and maximum experimentally defined as the average positive and negative controls on each plate. The IC50 data of the above described human P2Y12 recombinant cell membrane binding assay for exemplary compounds of the present invention are shown in table 1.
# T1 sequence (Q9H244 whole entry): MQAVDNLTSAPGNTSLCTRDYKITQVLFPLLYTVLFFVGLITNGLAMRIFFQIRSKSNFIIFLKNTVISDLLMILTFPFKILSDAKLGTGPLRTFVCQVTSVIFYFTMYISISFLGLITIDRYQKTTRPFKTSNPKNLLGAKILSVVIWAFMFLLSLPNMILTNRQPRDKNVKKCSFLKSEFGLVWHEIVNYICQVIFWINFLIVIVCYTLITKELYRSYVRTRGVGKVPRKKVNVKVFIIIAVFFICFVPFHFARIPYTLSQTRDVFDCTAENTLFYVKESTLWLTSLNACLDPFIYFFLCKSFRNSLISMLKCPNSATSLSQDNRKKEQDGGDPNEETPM
row,Structure (SMILES),IC50 [nM]
1,"CCOC(=O)N1CCN(C(=O)[C@H](CC(C(=O)O)C(=O)O)NC(=O)c2cc(OC3(C(=O)OCC)CCC3)n(-c3ccccc3)n2)CC1 [Example 61, 2-[(S)-2-{[5-(1-Ethoxycarbonyl-cyclobutoxy)-1-phenyl-1H-pyrazole-3-carbonyl]-amino}-3-(4-ethoxycarbonyl-piperazin-1-yl)-3-oxo-propyl]-malonic acid]",379
2,"CC(C)(C)C(=O)COc1cc(C(=O)N[C@@H](CCC(=O)O)C(=O)N2CCC(C(=O)c3cccc(Cl)c3)CC2)nn1-c1ccccc1 [Example 127, (S)-5-[4-(3-Chloro-benzoyl)-piperidin-1-yl]-4-{[5-(3,3-dimethyl-2-oxo-butoxy)-1-phenyl-1H-pyrazole-3-carbonyl]-amino}-5-oxo-pentanoic acid]",2800
3,"CCOC(=O)N1CCN(C(=O)[C@H](CC(=O)NS(C)(=O)=O)NC(=O)c2cc(OCC(=O)C(C)(C)C)n(-c3ccccc3)n2)CC1 [Example 164, 4-((S)-2-{[5-(3,3-Dimethyl-2-oxo-butoxy)-1-phenyl-1H-pyrazole-3-carbonyl]-amino}-4-methanesulfonylamino-4-oxo-butyryl)-piperazine-1-carboxylic acid ethyl ester]",1600
4,"Cc1cc(COc2cc(C(=O)N[C@@H](CCC(=O)O)C(=O)N3CCN(c4cccc(C(F)(F)F)c4)CC3)nn2-c2ccccc2)no1 [Example 120, (S)-4-{[5-(5-Methyl-isoxazol-3-ylmethoxy)-1-phenyl-1H-pyrazole-3-carbonyl]-amino}-5-oxo-5-[4-(3-trifluoromethyl-phenyl)-piperazin-1-yl]-pentanoic acid]",3500
5,"CCOC(=O)N1CCN(C(=O)[C@H](CNc2c(O)c(=O)c2=O)NC(=O)c2cc(OCC(=O)C(C)(C)C)n(-c3ccccc3)n2)CC1 [Example 136, 4-[(S)-2-{[5-(3,3-Dimethyl-2-oxo-butoxy)-1-phenyl-1H-pyrazole-3-carbonyl]-amino}-3-(2-hydroxy-3,4-dioxo-cyclobut-1-enylamino)-propionyl]-piperazine-1-carboxylic acid ethyl ester]",3500
6,"CC(C)(C)C(=O)COc1cc(C(=O)N[C@@H](CCC(=O)O)C(=O)N2CCN(C(=O)OC3CCC3)CC2)nn1-c1ccccc1 [Example 158, 4-((S)-4-Carboxy-2-{[5-(3,3-dimethyl-2-oxo-butoxy)-1-phenyl-1H-pyrazole-3-carbonyl]-amino}-butyryl)-piperazine-1-carboxylic acid cyclobutyl ester]",266
7,"COc1cc(OC)cc(N2CCN(C(=O)[C@H](CCC(=O)O)NC(=O)c3cc(OCC(=O)C(C)(C)C)n(-c4ccccc4)n3)CC2)c1 [Example 105, (S)-5-[4-(3,5-Dimethoxy-phenyl)-piperazin-1-yl]-4-{[5-(3,3-dimethyl-2-oxo-butoxy)-1-phenyl-1H-pyrazole-3-carbonyl]-amino}-5-oxo-pentanoic acid]",1400
8,"CCOC(=O)N1CCN(C(=O)[C@H](CC(=O)O)NC(=O)c2cc(OCC(=O)C(C)(C)C)n(-c3ccccc3)n2)CC1 [Example 163, 4-((S)-3-Carboxy-2-{[5-(3,3-dimethyl-2-oxo-butoxy)-1-phenyl-1H-pyrazole-3-carbonyl]-amino}-propionyl)-piperazine-1-carboxylic acid ethyl ester]",200
9,"CCOC(=O)N1CCN(C(=O)[C@H](CNC(=O)C(=O)O)NC(=O)c2cc(OCC(=O)C(C)(C)C)n(-c3ccccc3)n2)CC1 [Example 134, 4-[(S)-2-{[5-(3,3-Dimethyl-2-oxo-butoxy)-1-phenyl-1H-pyrazole-3-carbonyl]-amino}-3-(oxalyl-amino)-propionyl]-piperazine-1-carboxylic acid ethyl ester]",501
10,"CCOC(=O)N1CCN(C(=O)[C@H](CCC(=O)O)NC(=O)c2cc(OC3(C(=O)O)CCC3)n(-c3ccccc3)n2)CC1 [Example 7, 4-((S)-4-Carboxy-2-{[5-(1-carboxy-cyclobutoxy)-1-phenyl-1H-pyrazole-3-carbonyl]-amino}-butyryl)-piperazine-1-carboxylic acid ethyl ester]",601
11,"CCCCOC(=O)N1CCN(C(=O)[C@H](CCC(=O)O)NC(=O)c2cc(OCC(=O)C(C)(C)C)n(-c3ccccc3)n2)CC1 [Example 147, 4-((S)-4-Carboxy-2-{[5-(3,3-dimethyl-2-oxo-butoxy)-1-phenyl-1H-pyrazole-3-carbonyl]-amino}-butyryl)-piperazine-1-carboxylic acid butyl ester]",95
